Data set [1] is described as follows: solubility in a 90 wt. % ethanol aqueous solution. It counts as physicochemical. Also noted: key: ◯: Soluble; X: Insoluble. On the procedure:
(§1) With the purpose of investigating the properties of the compounds to be used for the present invention, solubilities in a 90 wt. % ethanol aqueous solution and stabilities at 0° C., room temperature and 40° C., of hydroxymethyl-menthol, 2-hydroxymethyl-2-butyl-cyclopentanol and 2-(1-hydroxyisopropyl)-5,6-dimethyl-cyclohexanone, were investigated. […] Furthermore, it can be understood that the quantity of the repellent compound is preferred to be at most 20% by weight, in view of touch in use.

Data set [2] concerns imagoes of the tiger mosquito, Aedes albopictus. The data set can be described thus: noxious-insect repellency test (treated forearm in a cage of tiger mosquitoes, percent repellency from biting marks). Type of data set: in vivo. The note with it: for Percent repellency: an hour after application; for noxious-insect repelling effect and durability (result in words): lotion or milky lotion containing the compound, tiger mosquito imagoes. The method, then: In each example, the noxious-insect repellency test was conducted as follows:
Test method of noxious-insect repelling effect and durability thereof In order to assess the repelling effect against imagoes of the tiger mosquito, Aedes albopictus, the following test was conducted at a room temperature of 30° C. and a relative humidity of 70% in an air-conditioned room. 10 ml each of test samples was applied to left and right forearms. Each treated forearm was introduced into a wire gauze cage (20 cm L.×15 cm Dia.) containing 50 female and 50 male tiger mosquitoes 5-7 days old after eclosion, for 15 minutes to afford time for biting. The assessment was repeated 30 minutes, 1 hour, 2 hours, 4 hours and 6 hours after the test sample was applied. The number of marks made by biting within each biting time was counted and a percent repellency was calculated using the following formula:
Percent repellency=(X−Y)/X×100 (%)
X: the number of the marks made by biting when the test sample was not applied,
Y: the number of the marks made by biting when the test sample was applied.

Data set [3] in a line: stability in a 90 wt. % ethanol aqueous solution at 0° C., room temperature and 40° C. It counts as physicochemical. Also noted: key: ◯: Stable; X: Precipitated. The method, then:
as §1

Where [4] appears, read: 0° C., content 10% (wt. %) in 90 wt. % ethanol aqueous solution.
Where [5] appears, read: 0° C., content 20% (wt. %) in 90 wt. % ethanol aqueous solution.
Where [6] appears, read: 0° C., content 50% (wt. %) in 90 wt. % ethanol aqueous solution.
Setting [7] is: 0° C., content 90% (wt. %) in 90 wt. % ethanol aqueous solution.
Where [8] appears, read: 0° C., content 95% (wt. %) in 90 wt. % ethanol aqueous solution.
Setting [9] is: 40° C., content 10% (wt. %) in 90 wt. % ethanol aqueous solution.
Setting [10] is: 40° C., content 20% (wt. %) in 90 wt. % ethanol aqueous solution.
The mark [11] stands for this setting: 40° C., content 50% (wt. %) in 90 wt. % ethanol aqueous solution.
[12] abbreviates: 40° C., content 90% (wt. %) in 90 wt. % ethanol aqueous solution.
Setting [13] is: 40° C., content 95% (wt. %) in 90 wt. % ethanol aqueous solution.
Where [14] appears, read: room temperature, content 10% (wt. %) in 90 wt. % ethanol aqueous solution.
Setting [15] is: room temperature, content 20% (wt. %) in 90 wt. % ethanol aqueous solution.
[16] abbreviates: room temperature, content 50% (wt. %) in 90 wt. % ethanol aqueous solution.
The mark [17] stands for this setting: room temperature, content 90% (wt. %) in 90 wt. % ethanol aqueous solution.
The mark [18] stands for this setting: room temperature, content 95% (wt. %) in 90 wt. % ethanol aqueous solution.
[19] abbreviates: content 0.1% (wt. %) in 40 wt. % ethanol aqueous solution.
Where [20] appears, read: content 1% (wt. %) in 40 wt. % ethanol aqueous solution.
[21] abbreviates: content 3% (wt. %) in 40 wt. % ethanol aqueous solution.

For the molecule `CCCCC1(CO)CCCC1O` (stereo not drawn) [2-Hydroxymethyl-2-butyl-cyclopentanol, 2-hydroxymethyl-2-butyl-cyclopentanol], the Solubility entry in data set [1] (setting [4]), in data set [1] (setting [5]), in data set [1] (setting [6]), in data set [1] (setting [7]), in data set [1] (setting [8]) and in data set [1] (setting [9]) was “◯” in each case. Moreover, the Solubility entry in data set [1] (setting [10]), in data set [1] (setting [11]), in data set [1] (setting [12]), in data set [1] (setting [13]), in data set [1] (setting [14]) and in data set [1] (setting [15]) was “◯” throughout. The Solubility result in data set [1] (setting [16]), in data set [1] (setting [17]) and in data set [1] (setting [18]) was “◯” in each case. Besides, the results for the Percent repellency in data set [2] (setting [19]), in data set [2] (setting [20]) and in data set [2] (setting [21]) were 24%, 60% and 88%, respectively. Also, the Stability entry in data set [3] (setting [4]) is “◯”; in data set [3] (setting [5]) it was “◯”; in data set [3] (setting [6]), “◯”; in data set [3] (setting [7]), “◯”; in data set [3] (setting [8]), “X”; in data set [3] (setting [9]), “◯”. Moreover, the Stability entry in data set [3] (setting [10]), in data set [3] (setting [11]), in data set [3] (setting [12]), in data set [3] (setting [13]), in data set [3] (setting [14]) and in data set [3] (setting [15]) was “◯” each time. For the same molecule, the Stability result in data set [3] (setting [16]) is given as “◯”; in data set [3] (setting [17]), “◯”; in data set [3] (setting [18]), “X”.

Regarding `CCCC(O)C1C(=O)C2(C)CCC1C2(C)C` (stereo not drawn) [3-(1-hydroxybutyl)-camphor], in data set [2], the “noxious-insect repelling effect and durability (result in words)” value was “excellent noxious-insect repelling effect and durability”.

For `CC(O)C1C2CCC(C)(C1O)C2(C)C` (stereo not drawn) [3-(1-hydroxyethyl)-borneol], the “noxious-insect repelling effect and durability (result in words)” value in data set [2] is “excellent noxious-insect repelling effect and durability”.

On to `CC(O)C1C(=O)C2(C)CCC1C2(C)C` (stereo not drawn) [3-(1-hydroxyethyl)-camphor], for which the “noxious-insect repelling effect and durability (result in words)” value in data set [2] was “excellent noxious-insect repelling effect and durability”.

Turning to `CCCCCC(O)C1C(=O)C2(C)CCC1C2(C)C` (stereo not drawn) [3-(1-hydroxyhexyl)-camphor, reference compound], the “noxious-insect repelling effect and durability (result in words)” value in data set [2] is “does not exhibit the repelling effect”.

On to `CC12CCC(C(CO)C1=O)C2(C)C` (stereo not drawn) [3-(1-hydroxymethyl)-camphor], for which the “noxious-insect repelling effect and durability (result in words)” value in data set [2] was “excellent noxious-insect repelling effect and durability”.

As for `CCC(O)C1C2CCC(C)(C1O)C2(C)C` (stereo not drawn) [3-(1-hydroxypropyl)-borneol], the “noxious-insect repelling effect and durability (result in words)” value in data set [2] is “excellent noxious-insect repelling effect and durability”.

In the case of `CCC(O)C1C(=O)C2(C)CCC1C2(C)C` (stereo not drawn) [3-(1-hydroxypropyl)-camphor], the “noxious-insect repelling effect and durability (result in words)” value in data set [2] was “excellent noxious-insect repelling effect and durability”.

Take `CC1CCC(C(C)(C)O)C(=O)C1C` (stereo not drawn) [8-hydroxy-2-methyl-p-menthan-3-one]: the Percent repellency was determined as 30% in data set [2] (setting [19]), 70% in data set [2] (setting [20]) and 94% in data set [2] (setting [21]).

Turning to `CC(C)C1CCC(C)C(CO)C1O` (stereo not drawn) [HMMO, 2-hydroxymethyl-menthol], the Percent repellency in data set [2] (content 0.05% (wt. %) in 40 wt. % ethanol aqueous solution) is given as 18%; in data set [2] (setting [19]), 48%; in data set [2] (setting [20]), 78%; in data set [2] (setting [21]), 92%. In data set [2], the “noxious-insect repelling effect and durability (result in words)” value was “excellent noxious-insect repelling effect and durability”.

For `CC(C)C1CCC(C)C(CO)C1=O` (stereo not drawn) [HMMT, 2-hydroxymethyl-menthone], the “noxious-insect repelling effect and durability (result in words)” value in data set [2] is “excellent noxious-insect repelling effect and durability”.

Turning to `CC1CCC(C(C)(C)O)C(O)C1C` (stereo not drawn) [MMD, p-menthane-2-methyl-3,8-diol], the “noxious-insect repelling effect and durability (result in words)” value in data set [2] is “excellent noxious-insect repelling effect and durability”.

Take `C=C1C(C)CCC(C(C)(C)O)C1O` (stereo not drawn) [MMED, p-menthane-2-methylene-3,8-diol]: in data set [2], the “noxious-insect repelling effect and durability (result in words)” value is “excellent noxious-insect repelling effect and durability”.

In the case of `C=CCC1C(C)CCC(C(C)(C)O)C1O` (stereo not drawn) [p-menthane-2-(2-propenyl)-3,8-diol], the “noxious-insect repelling effect and durability (result in words)” value in data set [2] was “excellent noxious-insect repelling effect and durability”.

p-menthane-2-ethyl-3,8-diol: in data set [2], the “noxious-insect repelling effect and durability (result in words)” value was “excellent noxious-insect repelling effect and durability”.

With p-menthane-2-hexyl-3,8-diol, in data set [2], the “noxious-insect repelling effect and durability (result in words)” value was “excellent noxious-insect repelling effect and durability”.

The values are drawn from US6372804B1, “Noxious-insect repellent” (Kanebo, Ltd., priority 1991, dated 2002).
